Experimental findings from PMC3648604 (Antiviral research, 2013) are described below.

In this assay the target is NA activity of the H5N1 influenza viruses (Influenza A virus (H5N1), UniProt Q6DPL2). The assay is classed as biochemical, human and avian HP H5N1 influenza viruses.

SMILES strings stand for the structures.

Sequence of NA activity of the H5N1 influenza viruses (Q6DPL2 whole entry, looked up): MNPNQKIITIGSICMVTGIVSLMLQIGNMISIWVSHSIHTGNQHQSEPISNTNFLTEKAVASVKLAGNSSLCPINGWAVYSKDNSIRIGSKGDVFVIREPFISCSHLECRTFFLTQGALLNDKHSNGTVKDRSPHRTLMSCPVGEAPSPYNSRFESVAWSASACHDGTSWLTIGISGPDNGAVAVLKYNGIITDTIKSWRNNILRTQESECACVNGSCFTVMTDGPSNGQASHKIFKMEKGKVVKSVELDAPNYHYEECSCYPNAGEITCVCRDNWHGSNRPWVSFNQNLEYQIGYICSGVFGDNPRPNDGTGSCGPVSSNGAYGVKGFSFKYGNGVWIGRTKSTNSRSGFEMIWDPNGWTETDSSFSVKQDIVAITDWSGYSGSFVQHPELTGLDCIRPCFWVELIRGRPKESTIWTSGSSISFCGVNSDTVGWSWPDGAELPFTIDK

Turning to `CC(=O)N[C@H]1[C@H]([C@H](O)[C@H](O)CO)OC(C(=O)O)=C[C@@H]1N=C(N)N` [Zanamivir, 4-guanidino-Neu5Ac2en], the “susceptibility in phenotypic fluorescence-based assay” value is listed as “fully susceptible”.
